Measurements from PubChem BioAssay AID1918935 (Molecular Pharmacology Branch, DTP, NCI, 2023).

Tested on: 324938-238-R-J1-PDC complex spheroid viability
Assay: Anticancer human tumor 324938-238-R-J1-PDC patient-derived bladder carcinoma cell line growth inhibition
Conditions: for IC50: curve of first compound; for viability, T/C: stronger effect = lower value
How it was run: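 Complex spheroids of tumor cells with HUVEC and human MSCs, exposed to iadademstat combined with other agents. Each agent tested in half-log steps from near clinical Cmax (else 10 microM top), DMSO ≤0.25%.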

[1] = second compound 0.1 µM, first compound 0.0316 µM
[2] = second compound 0.1 µM, first compound 0.1 µM
[3] = second compound 0.1 µM, first compound 0.316 µM
[4] = second compound 0.1 µM, first compound 1 µM
[5] = second compound 0.316 µM, first compound 0.0316 µM
[6] = second compound 0.316 µM, first compound 0.1 µM
[7] = second compound 0.316 µM, first compound 0.316 µM
[8] = second compound 0.316 µM, first compound 1 µM
[9] = second compound 1 µM, first compound 0.0316 µM
[10] = second compound 1 µM, first compound 0.1 µM
[11] = second compound 1 µM, first compound 0.316 µM
[12] = second compound 1 µM, first compound 1 µM
[13] = second compound 3.16 µM, first compound 0.0316 µM
[14] = second compound 3.16 µM, first compound 0.1 µM
[15] = second compound 3.16 µM, first compound 0.316 µM
[16] = second compound 3.16 µM, first compound 1 µM
[17] = second compound 10 µM, first compound 0.0316 µM
[18] = second compound 10 µM, first compound 0.1 µM
[19] = second compound 10 µM, first compound 0.316 µM
[20] = second compound 10 µM, first compound 1 µM
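Also: spheroids also contain HUVEC and human MSCs and agents combined with iadademstat; spheroids exposed to agents for 7 days before readout.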

SMILES	IC50 (second compound 0.1 µM) [µM]	IC50 (second compound 0.316 µM) [µM]	IC50 (second compound 1 µM) [µM]	IC50 (second compound 3.16 µM) [µM]	IC50 (second compound 10 µM) [µM]	viability, T/C [1] [%]	viability, T/C [2] [%]	viability, T/C [3] [%]	viability, T/C [4] [%]	viability, T/C [5] [%]	viability, T/C [6] [%]	viability, T/C [7] [%]	viability, T/C [8] [%]	viability, T/C [9] [%]	viability, T/C [10] [%]	viability, T/C [11] [%]	viability, T/C [12] [%]	viability, T/C [13] [%]	viability, T/C [14] [%]	viability, T/C [15] [%]	further results
CC(C)c1c(-c2ccccc2)nc2c(C#N)c[nH]n2c1=O + NC1CC1c1ccc(-c2cccc(O)c2)cc1	> 10	> 10	> 10	> 10	> 10	104	98.2	101	94	82.9	84.9	87.2	82.6	85.7	99.3	85.4	89.1	86.7	92.1	86.5	viability, T/C (second compound 0.1 µM, first compound 3.16 µM): 90.8%; viability, T/C (second compound 0.1 µM, first compound 10 µM): 72.6%; viability, T/C (second compound 0.316 µM, first compound 3.16 µM): 88.7%; viability, T/C (second compound 0.316 µM, first compound 10 µM): 79.1%; viability, T/C (second compound 1 µM, first compound 3.16 µM): 81.7%; viability, T/C (second compound 1 µM, first compound 10 µM): 81%; viability, T/C [16]: 89.7%; viability, T/C (second compound 3.16 µM, first compound 3.16 µM): 82.7%; viability, T/C (second compound 3.16 µM, first compound 10 µM): 77.3%; viability, T/C [17]: 89.5%; viability, T/C [18]: 85.4%; viability, T/C [19]: 86.9%; viability, T/C [20]: 88.9%; viability, T/C (second compound 10 µM, first compound 3.16 µM): 89.3%; viability, T/C (second compound 10 µM, first compound 10 µM): 80.8%
CC1COCCN1c1cc(-c2ccnn2C)c2ccnc(-c3ccn[nH]3)c2n1 (stereo not given) + NC1CC1c1ccc(-c2cccc(O)c2)cc1	0.0229	0.0176	0.0129	0.0158	0.0129	40.5	20.6	14.1	12.1	38.1	20.6	13.3	11.6	35	21.5	14.3	10.8	39.3	22.1	14.5	viability, T/C (second compound 0.1 µM, first compound 0.00316 µM): 90.1%; viability, T/C (second compound 0.1 µM, first compound 0.01 µM): 73.6%; viability, T/C (second compound 0.316 µM, first compound 0.00316 µM): 74%; viability, T/C (second compound 0.316 µM, first compound 0.01 µM): 61.5%; viability, T/C (second compound 1 µM, first compound 0.00316 µM): 66.7%; viability, T/C (second compound 1 µM, first compound 0.01 µM): 54.7%; viability, T/C (second compound 3.16 µM, first compound 0.00316 µM): 73.9%; viability, T/C (second compound 3.16 µM, first compound 0.01 µM): 57%; viability, T/C [16]: 12%; viability, T/C (second compound 10 µM, first compound 0.00316 µM): 69.6%; viability, T/C (second compound 10 µM, first compound 0.01 µM): 54.1%; viability, T/C [17]: 36.4%; viability, T/C [18]: 24.2%; viability, T/C [19]: 17.9%; viability, T/C [20]: 13.7%
